The values below come from patent US12590091B2, “1H-pyrrolo[3,2-C]pyridine and 1H-pyrrolo[2,3-C]pyridine derivatives as TLR9 inhibitors for the treatment of fibrosis” (BRISTOL-MYERS SQUIBB COMPANY, priority 2020, dated 2026).

Broadly, the pIC50 is the IC50 on a negative log10 scale, so that one unit is a factor of ten.

The target of one assay is T1, human TLR7 (Homo sapiens, UniProt Q9NYK1).
T1 construct: host or cells: HEK-Blue cells
T1 sequence (Q9NYK1 27-1049): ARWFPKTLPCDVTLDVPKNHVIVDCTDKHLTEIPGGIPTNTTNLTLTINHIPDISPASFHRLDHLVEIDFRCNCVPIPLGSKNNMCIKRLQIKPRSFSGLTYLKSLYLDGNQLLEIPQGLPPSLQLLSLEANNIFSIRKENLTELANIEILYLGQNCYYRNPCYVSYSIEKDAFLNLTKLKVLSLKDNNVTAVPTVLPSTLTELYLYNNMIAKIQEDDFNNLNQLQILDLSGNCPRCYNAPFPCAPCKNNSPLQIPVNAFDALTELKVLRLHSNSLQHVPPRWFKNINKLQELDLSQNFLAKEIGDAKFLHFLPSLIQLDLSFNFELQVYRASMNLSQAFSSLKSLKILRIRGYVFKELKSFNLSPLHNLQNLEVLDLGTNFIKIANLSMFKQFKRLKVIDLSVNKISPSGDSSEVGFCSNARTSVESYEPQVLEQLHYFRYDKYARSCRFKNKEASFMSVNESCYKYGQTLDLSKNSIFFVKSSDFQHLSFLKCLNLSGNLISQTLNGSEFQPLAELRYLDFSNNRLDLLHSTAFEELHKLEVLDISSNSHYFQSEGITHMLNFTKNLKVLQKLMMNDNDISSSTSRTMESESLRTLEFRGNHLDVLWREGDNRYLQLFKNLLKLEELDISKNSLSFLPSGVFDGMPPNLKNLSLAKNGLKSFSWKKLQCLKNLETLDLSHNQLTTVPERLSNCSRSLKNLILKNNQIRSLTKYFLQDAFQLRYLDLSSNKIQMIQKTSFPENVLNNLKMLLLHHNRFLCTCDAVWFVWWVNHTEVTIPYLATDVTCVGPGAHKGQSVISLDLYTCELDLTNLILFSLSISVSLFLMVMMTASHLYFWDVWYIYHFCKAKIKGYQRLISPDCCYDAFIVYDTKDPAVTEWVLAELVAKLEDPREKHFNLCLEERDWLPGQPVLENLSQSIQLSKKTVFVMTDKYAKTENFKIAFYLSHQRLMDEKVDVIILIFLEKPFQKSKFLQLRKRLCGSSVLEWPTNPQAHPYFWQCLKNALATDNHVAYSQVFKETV
Briefly: TLR7 inhibition reporter assay (HEK-Blue cells, SEAP reporter). Particulars: HEK-Blue cells overexpressing human TLR7, stimulated with gardiquimod 7.5 μM, 22 hour incubation. Type of assay: cell-based. The procedure, abridged:
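HEK-Blue cells overexpressing human TLR7, TLR8 or TLR9 carry a SEAP reporter driven by NF-κB/AP-1 sites. Compounds (0.05 nM–50 μM) were preincubated 30 min at room temperature, then cells were stimulated with gardiquimod 7.5 μM (TLR7), R848 15.9 μM (TLR8) or ODN2006 5 nM (TLR9) for 22 h at 37 °C.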
For orientation: Reporter assays use an easily measured gene product as a stand-in for the process of interest.

The next assay addresses T2, human TLR8 (Homo sapiens, UniProt Q9NR97).
T2 construct: host or cells: HEK-Blue cells
T2 sequence (Q9NR97 27-1041): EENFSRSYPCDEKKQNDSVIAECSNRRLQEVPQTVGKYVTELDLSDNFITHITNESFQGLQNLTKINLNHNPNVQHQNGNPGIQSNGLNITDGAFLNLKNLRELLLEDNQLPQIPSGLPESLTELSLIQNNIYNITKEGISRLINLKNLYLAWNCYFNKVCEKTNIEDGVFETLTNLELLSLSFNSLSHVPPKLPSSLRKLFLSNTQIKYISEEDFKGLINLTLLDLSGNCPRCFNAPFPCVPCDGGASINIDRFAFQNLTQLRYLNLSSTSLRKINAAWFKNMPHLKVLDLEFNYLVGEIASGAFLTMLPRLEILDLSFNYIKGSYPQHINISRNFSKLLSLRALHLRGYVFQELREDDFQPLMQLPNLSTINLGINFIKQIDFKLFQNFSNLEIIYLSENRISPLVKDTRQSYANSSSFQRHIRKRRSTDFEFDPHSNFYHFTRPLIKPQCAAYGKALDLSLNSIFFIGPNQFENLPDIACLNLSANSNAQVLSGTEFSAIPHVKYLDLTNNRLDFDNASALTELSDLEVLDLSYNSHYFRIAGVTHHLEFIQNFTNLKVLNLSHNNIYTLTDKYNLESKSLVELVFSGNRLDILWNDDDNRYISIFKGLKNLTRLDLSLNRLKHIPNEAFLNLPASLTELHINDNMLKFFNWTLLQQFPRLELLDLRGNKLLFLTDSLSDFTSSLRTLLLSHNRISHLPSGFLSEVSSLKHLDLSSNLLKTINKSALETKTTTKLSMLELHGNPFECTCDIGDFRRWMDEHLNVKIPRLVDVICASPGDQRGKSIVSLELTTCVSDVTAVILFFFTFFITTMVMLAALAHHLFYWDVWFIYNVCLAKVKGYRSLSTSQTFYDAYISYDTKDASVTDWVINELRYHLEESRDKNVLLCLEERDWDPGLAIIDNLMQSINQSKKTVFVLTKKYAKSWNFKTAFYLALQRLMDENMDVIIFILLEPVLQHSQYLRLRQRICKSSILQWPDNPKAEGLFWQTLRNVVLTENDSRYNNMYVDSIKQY
The assay is described as follows: TLR8 inhibition reporter assay (HEK-Blue cells, SEAP reporter). Format: cell-based. Particulars: HEK-Blue cells overexpressing human TLR8, stimulated with R848 15.9 μM, 22 hour incubation. On the procedure: TLR7/8/9 Inhibition Reporter Assays
HEK-Blue™-cells (Invivogen) overexpressing human TLR7, TLR8 or TLR9 receptors were used for screening inhibitors of these receptors using an inducible SEAP (secreted embryonic alkaline phosphatase) reporter gene under the control of the IFN-β minimal promoter fused to five NF-κB and AP-1-binding sites. Briefly, cells are seeded into Greiner 384 well plates (15000 cells per well for TLR7, 20,000 for TLR8 and 25,000 for TLR9) and then treated with test compounds in DMSO to yield a final dose response concentration range of 0.05 nM-50 μM. After a 30 minute compound pre-treatment at room temperature, the cells are then stimulated with a TLR7 ligand (gardiquimod at a final concentration of 7.5 μM), TLR8 ligand (R848 at a final concentration of 15.9 μM) or TLR9 ligand (ODN2006 at a final concentration of 5 nM) to activate NF-κB and AP-1 which induce the production of SEAP. After a 22 hour incubation at 37° C., 5% CO2, SEAP levels are determined with the addition of HEK-Blue™ Detection reagent (Invivogen), a cell culture medium that allows for detection of SEAP, according to manufacturer's specifications. The percent inhibition is determined as the % reduction in the HEK-Blue signal present in wells treated with agonist plus DMSO alone compared to wells treated with a known inhibitor.

pIC50: −log10 of the molar value.

Turning to `Cc1nc(-c2cc(F)c(N3CCNCC3)cc2F)cc2c1cc(-c1ccc(S(C)(=O)=O)cc1)n2C` [Example 43, 6-(2,5-Difluoro-4-(piperazin-1-yl)phenyl)-1,4-dimethyl-2-(4-(methylsulfonyl)phenyl)-1H-pyrrolo[3,2-c]pyridine], the values for the pIC50 on human TLR7 and at human TLR8 were 5.21 and 5.57, respectively.
The matching figures for `Cc1nc(-c2ccc(CN3CCN(CC(C)(C)O)CC3)cc2)cc2c1cc(-c1ccc(S(C)(=O)=O)cc1)n2C` [Example 44, 1-(4-(4-(1,4-Dimethyl-2-(4-(methylsulfonyl)phenyl)-1H-pyrrolo[3,2-c]pyridin-6-yl)benzyl)piperazin-1-yl)-2-methylpropan-2-ol]: 6.19 and 5.92.
The matching figures for `Cc1nc(-c2ccc(N3CCN(CCCO)CC3)cc2)cc2c1cc(-c1ccc(S(=O)(=O)C3CC3)cc1)n2C` [Example 47, 3-(4-(4-(2-(4-(cyclopropylsulfonyl)phenyl)-1,4-dimethyl-1H-pyrrolo[3,2-c]pyridin-6-yl)phenyl)piperazin-1-yl)propan-1-ol]: 4.83 and less than 4.60.
Regarding `COCCN1CCN(c2ccc(-c3cc4c(cc(-c5ccc(S(=O)(=O)C6CC6)cc5)n4C)c(C)n3)cc2)CC1` [Example 48, 2-(4-(cyclopropylsulfonyl)phenyl)-6-(4-(4-(2-methoxyethyl)piperazin-1-yl)phenyl)-1,4-dimethyl-1H-pyrrolo[3,2-c]pyridine], the pIC50 is 5.68 at human TLR7 and less than 4.60 against human TLR8.
The matching figures for `CC(C)CN1CCN(c2ccc(-c3cc4c(cn3)cc(-c3ccc(S(C)(=O)=O)cc3)n4C)cc2)CC1` [Example 53, 6-(4-(4-isobutylpiperazin-1-yl)phenyl)-1-methyl-2-(4-(methylsulfonyl)phenyl)-1H-pyrrolo[3,2-c]pyridine]: less than 4.30 and less than 4.30.
The matching figures for `CC(C)N1CCN(c2ccc(-c3cc4c(cn3)cc(-c3ccc(S(C)(=O)=O)cc3)n4C)cc2)CC1` [Example 54, 6-(4-(4-isopropylpiperazin-1-yl)phenyl)-1-methyl-2-(4-(methylsulfonyl)phenyl)-1H-pyrrolo[3,2-c]pyridine]: 5.34 and less than 4.30.
With `Cc1nc(-c2ccc(N3CCN(CCCO)CC3)c(F)c2F)cc2c1cc(-c1ccc(S(C)(=O)=O)cc1)n2C` [Example 55, 3-(4-(4-(1,4-dimethyl-2-(4-(methylsulfonyl)phenyl)-1H-pyrrolo[3,2-c]pyridin-6-yl)-2,3-difluorophenyl)piperazin-1-yl)propan-1-ol], the pIC50 against human TLR7 is 5.24; at human TLR8 it was less than 4.30.
`Cc1nc(-c2cc(F)c(N3CCN(CCCO)CC3)cc2F)cc2c1cc(-c1ccc(S(C)(=O)=O)cc1)n2C` [Example 56, 3-(4-(4-(1,4-dimethyl-2-(4-(methylsulfonyl)phenyl)-1H-pyrrolo[3,2-c]pyridin-6-yl)-2,5-difluorophenyl)piperazin-1-yl)propan-1-ol]: the values for the pIC50 against human TLR7 and at human TLR8 were 4.73 and 4.88, respectively.
As for `Cc1nc(-c2ccc(CN3CCN(CC(C)C)CC3)cc2)cc2c1cc(-c1ccc(S(C)(=O)=O)cc1)n2C` [Example 57, 6-(4-((4-isobutylpiperazin-1-yl)methyl)phenyl)-1,4-dimethyl-2-(4-(methylsulfonyl)phenyl)-1H-pyrrolo[3,2-c]pyridine], the figures for the pIC50 at human TLR7 and on human TLR8 were 5.22 and 5.12, respectively.
For the compound `Cc1nc(-c2ccc(CN3CCN(CCCO)CC3)cc2)cc2c1cc(-c1ccc(S(C)(=O)=O)cc1)n2C` [Example 58, 3-(4-(4-(1,4-dimethyl-2-(4-(methylsulfonyl)phenyl)-1H-pyrrolo[3,2-c]pyridin-6-yl)benzyl)piperazin-1-yl)propan-1-ol], the results for the pIC50 against human TLR7 and against human TLR8 were 5.09 and 4.75, respectively.
With `Cc1nc(-c2ccc(CN3CCC(C)(O)CC3)cc2)cc2c1cc(-c1ccc(S(C)(=O)=O)cc1)n2C` [Example 59, 1-(4-(1,4-dimethyl-2-(4-(methylsulfonyl)phenyl)-1H-pyrrolo[3,2-c]pyridin-6-yl)benzyl)-4-methylpiperidin-4-ol], the pIC50 at human TLR7 was 4.89; against human TLR8 it was 4.76.
For `Cc1nc(-c2ccc(CN3CCN(CCC(C)(C)O)CC3)cc2)cc2c1cc(-c1ccc(S(C)(=O)=O)cc1)n2C` [Example 60, 4-(4-(4-(1,4-dimethyl-2-(4-(methylsulfonyl)phenyl)-1H-pyrrolo[3,2-c]pyridin-6-yl)benzyl)piperazin-1-yl)-2-methylbutan-2-ol] the same measures were 5.27 and 5.34.
For the compound `Cc1nc(-c2ccc(CN3C[C@@H]4CC[C@H]3CN4CCC(C)(C)O)cc2)cc2c1cc(-c1ccc(S(C)(=O)=O)cc1)n2C` [Example 61, 4-((1S,4S)-5-(4-(1,4-dimethyl-2-(4-(methylsulfonyl)phenyl)-1H-pyrrolo[3,2-c]pyridin-6-yl)benzyl)-2,5-diazabicyclo[2.2.2]octan-2-yl)-2-methylbutan-2-ol], the pIC50 at human TLR7 was 5.51; against human TLR8 it was 6.07.
In the case of `Cc1nc(-c2ccc(N3CCN(CCO)CC3)c(F)c2)cc2c1cc(-c1ccc(S(C)(=O)=O)cc1)n2C` [Example 69, 2-(4-(4-(1,4-dimethyl-2-(4-(methylsulfonyl)phenyl)-1H-pyrrolo[3,2-c]pyridin-6-yl)-2-fluorophenyl)piperazin-1-yl)ethan-1-ol], the pIC50 is 4.63 against human TLR7 and less than 4.60 against human TLR8.
Regarding `Cc1nc(-c2ccc(N3CCN(C4CCOC4)CC3)c(F)c2)cc2c1cc(-c1ccc(S(C)(=O)=O)cc1)n2C` (stereo not drawn) [Example 70, 6-(3-fluoro-4-(4-(tetrahydrofuran-3-yl)piperazin-1-yl)phenyl)-1,4-dimethyl-2-(4-(methylsulfonyl)phenyl)-1H-pyrrolo[3,2-c]pyridine], the pIC50 against human TLR7 and on human TLR8 was less than 4.60 throughout.
